≈ marks a conversion by molar mass, not a printed value. Like-named read-outs stand apart in the source and are kept apart here. Values belong to the compound of their own block, whether it stands above or below them.
Legend:
[1] = tested on: human glioma cells; assay: MTT assay, elemene analogs; format: cell-based; conditions: for IC50: Homo sapiens, Glioma cell
Description: (§1) The MTT assay is a commonly used method in evaluation of cell survival, based on the ability of viable cells to convert MTT, a soluble tetrazolium salt [3-(4,5-dimethylthuazole-2-yl)-2,5 diphenyl tetrazolium bromide], into an insoluble formazan precipitate, which is quantitated by spectrophotometry following solubilization in dimethyl sulfoxide (DMSO).
(§2) The cells were then solubilized in 125 μl of DMSO and absorbance readings were taken using a 96-well Opsys MRI Microplate Reader (ThermoLabsystems; Chantilly, Va.). The amount of MTT dye reduction was calculated based on the difference between absorbance at 570 nm and at 630 nm. Cell viability in treated cells was expressed as the amount of dye reduction relative to that of untreated control cells. The wells which contained only medium and 10 μl of MTT were used as blanks for the plate reader. Three sets of experiments were performed in 8-12 wells for each treatment.

[2] = tested on: A-172 brain tumor; assay: MTT survival assay; format: cell-based, human; conditions: Homo sapiens, A 172, read-out: IC50
Description: as §1, §2
(§3) The cells were then solubilized in 125 μl of DMSO and absorbance readings were taken using a 96-well Opsys MRI Microplate Reader (ThermoLabsystems; Chantilly, Va.). The amount of MTT dye reduction was calculated based on the difference between absorbance at 570 nm and at 630 nm. Cell viability in treated cells was expressed as the amount of dye reduction relative to that of untreated control cells. The wells which contained only medium and 10 μI of MTT were used as blanks for the plate reader. Three sets of experiments were performed in 8-12 wells for each treatment.

[3] = tested on: U-87 brain tumor; assay: MTT survival assay; format: cell-based, human; conditions: Homo sapiens, read-out: IC50
Description: as §1, §2, §3

[4] = tested on: STTG1 brain tumor; assay: MTT survival assay; format: cell-based, human; conditions: Homo sapiens, read-out: IC50
Description: as §1, §2

[5] = tested on: human lung cancer A549; conditions: 30 mg/kg/time ip × 7 qd
[6] = tested on: human liver cancer QGY; conditions: 30 mg/kg/time ip × 7 qd
[7] = tested on: human breast cancer ao10/17; conditions: 30 mg/kg/time ip × 7 qd
[8] = tested on: human prostate cancer PC-3M; conditions: 30 mg/kg/time ip × 7 qd
[9] = tested on: human colon cancer HCT-8; conditions: 30 mg/kg/time ip × 7 qd
[10] = tested on: human breast cancer Bcap-37; conditions: 30 mg/kg/time ip × 7 qd

Compound: (S)-5-Isopropenyl-1,2-dimethyl-cyclohex-2-enol, and (R)-5-Isopropenyl-1,2-dimethyl-cyclohex-2-enol [Lr-5]
IC50 in human glioma cells ([1]; 24 hr): >200 µg/mL | IC50 in human glioma cells ([1]; 48 hr): >200 µg/mL | IC50 in human glioma cells ([1]; 72 hr): >200 µg/mL

Compound: (1R,5S)-1-Isobutyl-3,5-diisopropenyl-2-methyl-cyclohex-2-enol, and (1S,5S)-1-Isobutyl-3,5-diisopropenyl-2-methyl-cyclohex-2-enol [Lr-8]
IC50 in human glioma cells ([1]; 24 hr): 106.2 µg/mL | IC50 in human glioma cells ([1]; 48 hr): 105.2 µg/mL | IC50 in human glioma cells ([1]; 72 hr): 103.3 µg/mL

Compound: C=C[C@]1(C)CC[C@@H]([C@](C)(O)CO)C[C@H]1C(=C)C [Lr-2, (S)-2-((1R,3S,4S)-3-isopropenyl-4-methyl-4-vinyl-cyclohexyl)-propane-1,2-diol]
IC50 ([2]; A172, 24 h): 122 µg/mL (≈ 512 µM) | IC50 ([2]; A172, 48 h): 96 µg/mL (≈ 403 µM) | IC50 ([2]; A172, 72 h): 65 µg/mL (≈ 273 µM) | IC50 ([3]; U87, 24 h): 90 µg/mL (≈ 378 µM) | IC50 ([3]; U87, 48 h): 94 µg/mL (≈ 394 µM) | IC50 ([3]; U87, 72 h): 87 µg/mL (≈ 365 µM) | IC50 ([4]; STTG1, 24 h): 112 µg/mL (≈ 470 µM) | IC50 ([4]; STTG1, 48 h): 98 µg/mL (≈ 411 µM) | IC50 ([4]; STTG1, 72 h): 97 µg/mL (≈ 407 µM) | IC50 ([1]; 48 hr): 89.6 µg/mL (≈ 376 µM) | IC50 ([1]; 72 hr): 90.9 µg/mL (≈ 381 µM)

Compound: O=P1(N(CCCl)CCCl)NCCCO1 (centres unmarked) [CTX, Cyclophosphamide, reference compound]
Inhibition Rate % [5]: 85.13% | Tumor Weight (g) X ± SD [5]: 0.29 ± 0.07 g | Inhibition Rate % [6]: 89.37% | Tumor Weight (g) X ± SD [6]: 0.22 ± 0.12 g | Inhibition Rate % [7]: 87.50% | Tumor Weight (g) X ± SD [7]: 0.15 ± 0.08 g | Inhibition Rate % [8]: 87.27% | Tumor Weight (g) X ± SD [8]: 0.205 ± 0.1 g | Inhibition Rate % [9]: 88.11% | Tumor Weight (g) X ± SD [9]: 0.170 ± 0.08 g | Inhibition Rate % [10]: 84.23% | Tumor Weight (g) X ± SD [10]: 0.205 ± 0.12 g

More lines, main results first:

IC50 ([1]; 24 hr): > 200 µg/mL | IC50 ([1]; 48 hr): > 200 µg/mL | IC50 ([1]; 72 hr): > 200 µg/mL
Compound: C=C(C)[C@H]1CC=C(C)C(=O)C1 [Lr-9, (S)-5-Isopropenyl-2-methyl-cyclohex-2-enone]

IC50 in human glioma cells ([1]; 24 hr): >200 µg/mL | IC50 in human glioma cells ([1]; 48 hr): >200 µg/mL | IC50 in human glioma cells ([1]; 72 hr): >200 µg/mL
Compound: (1S,5S)-3,5-Diisopropenyl-2-methyl-cyclohex-2-enol, and (1R,5S)-3,5-Diisopropenyl-2-methyl-cyclohex-2-enol [Lr-7]

IC50 ([1]; 24 hr): > 200 µg/mL | IC50 ([1]; 48 hr): > 200 µg/mL | IC50 ([1]; 72 hr): > 200 µg/mL
Compound: C=C[C@]1(C)CC[C@@H](C(C)=O)C[C@H]1C(=C)C [Lr-3, 1-((1R,3S,4S)-3-Isopropenyl-4-methyl-4-vinyl-cyclohexyl)-ethanone]
IC50 ([2]; A172, 24 h): > 140 µg/mL | IC50 ([2]; A172, 48 h): 134 µg/mL (≈ 649 µM) | IC50 ([2]; A172, 72 h): 106 µg/mL (≈ 514 µM) | IC50 ([3]; U87, 24 h): 118 µg/mL (≈ 572 µM) | IC50 ([3]; U87, 48 h): > 120 µg/mL | IC50 ([3]; U87, 72 h): 120 µg/mL (≈ 582 µM) | IC50 ([4]; STTG1, 24 h): 108 µg/mL (≈ 523 µM) | IC50 ([4]; STTG1, 48 h): > 120 µg/mL | IC50 ([4]; STTG1, 72 h): 110 µg/mL (≈ 533 µM)

Reference: patent publication US8507562B2, “Synthesis of (1)-beta-elemene, (-)-beta-elemenal, (-)-beta-elemenol, (-)-beta-elemene fluoride and their analogues, intermediates, and composition and uses thereof” (HYWE Pharmaceuticals, Inc., priority 2004, dated 2013)
